According to ChEMBL document CHEMBL1126767, “Three-dimensional quantitative structure-activity relationship of angiotesin-converting enzyme and thermolysin inhibitors. II. A comparison of CoMFA models incorporating molecular orbital fields and desolvation free energies based on active-analog and complementary-receptor-field alignment rules” (J Med Chem, 1993):
Peptide text beside a SMILES is read from it.

Target: T1, Angiotensin-converting enzyme (Rattus norvegicus, UniProt P47820)
T1 sequence (P47820 whole entry): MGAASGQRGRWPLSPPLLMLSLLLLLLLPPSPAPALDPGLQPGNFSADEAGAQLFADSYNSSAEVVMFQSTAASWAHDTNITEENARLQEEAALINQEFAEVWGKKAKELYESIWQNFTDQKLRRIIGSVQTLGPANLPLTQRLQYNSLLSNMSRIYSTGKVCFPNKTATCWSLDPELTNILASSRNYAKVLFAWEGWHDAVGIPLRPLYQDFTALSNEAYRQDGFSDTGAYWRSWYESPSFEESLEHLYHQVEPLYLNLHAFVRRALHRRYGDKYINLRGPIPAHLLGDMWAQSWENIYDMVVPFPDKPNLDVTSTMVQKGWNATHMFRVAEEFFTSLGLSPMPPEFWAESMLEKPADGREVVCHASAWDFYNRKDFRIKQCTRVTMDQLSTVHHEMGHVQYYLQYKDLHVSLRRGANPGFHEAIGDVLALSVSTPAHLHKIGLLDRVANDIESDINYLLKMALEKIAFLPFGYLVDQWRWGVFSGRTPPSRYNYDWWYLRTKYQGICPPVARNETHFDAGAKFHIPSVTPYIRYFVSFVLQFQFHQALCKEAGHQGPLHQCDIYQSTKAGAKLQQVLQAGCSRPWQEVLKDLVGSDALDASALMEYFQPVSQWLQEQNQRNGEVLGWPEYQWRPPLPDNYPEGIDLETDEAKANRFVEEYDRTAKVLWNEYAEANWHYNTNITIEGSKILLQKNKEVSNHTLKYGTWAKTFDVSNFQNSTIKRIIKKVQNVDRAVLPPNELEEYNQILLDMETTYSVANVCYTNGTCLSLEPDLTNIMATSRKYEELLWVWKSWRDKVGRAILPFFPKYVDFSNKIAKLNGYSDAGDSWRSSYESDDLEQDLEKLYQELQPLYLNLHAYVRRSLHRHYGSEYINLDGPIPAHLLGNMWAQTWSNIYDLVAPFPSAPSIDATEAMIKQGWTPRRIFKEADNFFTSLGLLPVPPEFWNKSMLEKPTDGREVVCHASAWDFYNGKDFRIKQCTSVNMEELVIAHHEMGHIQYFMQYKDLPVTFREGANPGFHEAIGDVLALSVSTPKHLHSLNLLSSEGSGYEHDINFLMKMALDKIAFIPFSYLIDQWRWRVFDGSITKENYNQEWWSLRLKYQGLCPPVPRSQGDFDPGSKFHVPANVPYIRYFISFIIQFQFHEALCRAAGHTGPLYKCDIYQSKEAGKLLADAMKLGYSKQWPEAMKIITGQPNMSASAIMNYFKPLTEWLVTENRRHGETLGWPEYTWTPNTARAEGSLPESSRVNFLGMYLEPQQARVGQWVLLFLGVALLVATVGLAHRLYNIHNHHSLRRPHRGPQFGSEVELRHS
Assay: Inhibitory activity against angiotensin converting enzyme (ACE); Activity is for a diastereomeric or racemic mixture
Assay type: functional

| Structure (SMILES) | IC50 |
| --- | --- |
| C[C@H](NC(C(=O)O)C(Cc1ccccc1)NC(=O)c1ccccc1)C(=O)N1CCC[C@H]1C(=O)O (stereo not given in full) | 0.00776 µM |

Target: Angiotensin-converting enzyme (Homo sapiens, UniProt P12821)
Assay: Inhibitory activity against angiotensin converting enzyme (ACE)
Assay type: functional

| Structure (SMILES) | IC50 |
| --- | --- |
| CC(S)C(=O)N[C@@H](Cc1c[nH]c2ccccc12)C(=O)O (stereo in doubt; form 1) | 0.363 µM |
| CC(S)C(=O)N[C@@H](CS)C(=O)O (stereo in doubt; form 1) | 537 µM |
| O=C(CCS)N[C@@H](Cc1c[nH]c2ccccc12)C(=O)O (stereo in doubt; form 1) | > 1000 µM |
| CC(S)C(=O)N[C@@H](Cc1c[nH]c2ccccc12)C(=O)O (stereo in doubt; form 2) | 0.0646 µM |
| CC(S)C(=O)N[C@@H](CS)C(=O)O (stereo in doubt; form 2) | 7.94 µM |
| O=C(CCS)N[C@@H](Cc1c[nH]c2ccccc12)C(=O)O (stereo in doubt; form 2) | 4.57 µM |
| CC(C)(S)C(=O)N[C@@H](CS)C(=O)O [BUCILLAMINE] | 7240 µM |
| NCCCC[C@H](OP(=O)(O)CCCCc1ccccc1)C(=O)N1CCC[C@H]1C(=O)O [CERONAPRIL] | 0.0363 µM |
| NCC(=O)N1CCC[C@H]1C(=O)O [GLYCYL PROLINE] (H-Gly-Pro-OH) | 447 µM |
